Assays:
[1] = tested on: HeLa cells transfected with the vector without receptor (empty vector, ev); assay: Etoposide-induced apoptosis in HeLa cells transfected with empty vector; conditions: 10^−12M to 10^−8 M
[2] = tested on: lactoferrin mRNA in the uterus; conditions: WT mice, E2 20 ng/g body weight for 28 days; stated as known; cited from earlier work
[3] = tested on: ERK1/2; assay: ERK phosphorylation in MLO-Y4 cells (Western blot); assay type: cell-based; conditions: MLO-Y4 cells
Method: Western blot analysis. The phosphorylation status of ERK1/2 was analyzed by immunoblotting using a mouse monoclonal antibody recognizing tyrosine phosphorylated ERK1/2, or a rabbit polyclonal antibody recognizing total ERK1/2, followed by incubation with either an anti-mouse or an anti-rabbit antibody conjugated with horseradish peroxidase (Santa Cruz Biotechnology).

[4] = tested on: vertebral osteoblast and osteocyte apoptosis; assay: Osteoblast and osteocyte apoptosis in vertebrae of ovariectomized mice (TUNEL); assay type: in vivo; conditions: data not shown
[5] = target: ERβ (Homo sapiens, UniProt Q92731); assay: Etoposide-induced apoptosis in HeLa cells transfected with ERβ; conditions: HeLa transfected with ERβ
[6] = tested on: osteocytic cell line MLO-Y4; assay: Apoptosis of MLO-Y4 osteocytic cells (trypan blue); assay type: cell-based
[7] = tested on: calvaria-derived murine osteoblastic cells; assay: Apoptosis of calvaria-derived osteoblastic cells (trypan blue); conditions: 10^−8 M steroid
[8] = tested on: embryonic fibroblasts derived from Src−/− mice; assay: Apoptosis in embryonic fibroblasts from Src−/− mice; assay type: cell-based; conditions: ER- and AR-expressing, also lack yes and Fyn
Method: Cell lysates were obtained and proteins were analyzed by Western blot analysis using anti-ERK1/2 or anti-phospho-ERK1/2 (p-ERK1/2) antibodies. […] After 30 min, etoposide was added and apoptosis was assayed 6 hours later as in FIG. 1B. […] RT-PCR was performed as described in the experimental procedures. C-E. HeLa cells were transfected with Nuc-EGFP and with expression vectors encoding the full length ERα or its E domain, or the AR alone (C, left panel) or together with a dn MEK (C, right panel); a Src mutant lacking the kinase activity (Src K^−), a Src mutant lacking the SH2 domain (Src ΔSH2), or a Src mutant lacking the SH3 domain (Src ΔSH3) (D); or with ERα together with wt Shc, or the dn Shc mutants Y239F/Y240F/Y317F (Shc FFF), Y317F (Shc YYF) or Y239F/Y240F (Shc FFY) (E). Bars represent means±SD of triplicate determinations. *p<0.05 versus cells cultured without steroids, by ANOVA.
Quantification of apoptotic cells in vitro. Apoptotic cells were quantified either by trypan blue staining or by direct visualization of changes in nuclear morphology (in the case of transfected HeLa cells), as previously described (Plotkin,L. et al. (1999). J.
RT-PCR analysis of the ERs and AR in embryonic fibroblasts. […]

[9] = Bone remodeling in mice given doxycycline in drinking water; assay type: in vivo; conditions: 0.5 mg/ml in drinking water; stated as established
Method: Tet-F6 and wild type animals are assessed for bone mass by in vivo DEXA analysis at weekly intervals following the turning on of the transgene or the overiectomy. At the end of the 4-6 week period, both groups of animals are sacrificed and the following determinations made: a) whole body and uterine and mammary gland weights, b) length of the long bones and the width between the periosteal and endosteal bone, c) osteoblastogenesis and osteoclastogenesis in ex vivo cultures of bone marrow cells, d) prevalence of osteoblast/osteocyte and osteoclast apoptosis in sections of vertebrae, e) rate of bone formation and resorption by dynamic histomorphometry and f) compression strength of the vertebrae. An intraperitoneal injection of 30ng/g body weight of oxytetracycline-hydrochloride is administered 8 days and 2 days before sacrificing the animals for the dynamic histomorphometry analysis. It is important to note that the TET ON system is 100-1000 fold less sensitive to tetracycline than it is to doxycycline. […] Therefore, this maneuver should not influence the expression of the transgene, which at this stage will have been turned on with doxycycline.

Chain of ERβ (Q92731 whole entry, species assumed): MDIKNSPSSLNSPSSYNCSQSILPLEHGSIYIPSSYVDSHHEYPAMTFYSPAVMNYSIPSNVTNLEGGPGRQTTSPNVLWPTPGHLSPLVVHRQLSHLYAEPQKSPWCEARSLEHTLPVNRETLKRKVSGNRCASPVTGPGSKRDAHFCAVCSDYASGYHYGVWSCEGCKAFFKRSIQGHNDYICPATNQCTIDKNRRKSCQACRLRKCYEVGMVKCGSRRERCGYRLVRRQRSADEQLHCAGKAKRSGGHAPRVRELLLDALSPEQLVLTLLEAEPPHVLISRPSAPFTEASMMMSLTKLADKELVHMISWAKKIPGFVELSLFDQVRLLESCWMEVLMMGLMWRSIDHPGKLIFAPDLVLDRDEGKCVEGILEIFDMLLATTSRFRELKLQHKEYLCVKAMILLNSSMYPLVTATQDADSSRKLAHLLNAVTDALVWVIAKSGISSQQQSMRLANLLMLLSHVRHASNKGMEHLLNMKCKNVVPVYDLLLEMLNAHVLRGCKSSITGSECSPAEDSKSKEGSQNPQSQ

Row | Structure (SMILES) | effect on etoposide-induced apoptosis [1] | increase of lactoferrin mRNA in the uterus [2] | time of maximal effect on phosphorylation of ERKs [3] [min] | prevention of the ovariectomy-induced increase in osteoblast and osteocyte apoptosis [4] | prevention of etoposide-induced apoptosis [5] | prevention of apoptosis induced by etoposide, dexamethasone or TNFα ([6]; 10^−8 M steroid) | dose-dependent inhibition of etoposide-induced apoptosis compared with calvaria cells ([6]; not shown) | prevention of apoptosis induced by etoposide, dexamethasone or TNFα [7] | anti-apoptotic effect in Src−/− fibroblasts (unlike Src+/+ wild type controls) [8] | effect on bone remodeling [9]
1 | C[C@]12CC[C@@H]3c4ccc(O)cc4CC[C@H]3[C@@H]1CC[C@@H]2O [E2, 17β-estradiol] | Neither E2 nor DHT (10^−12M to 10^−8 M) had an effect | approximately 5 fold | 5 | prevented | prevented apoptosis in a dose-dependent manner | prevented apoptosis | identical results | prevented apoptosis | unresponsive | 
2 | C[C@H]1c2cccc(O)c2C(=O)C2=C(O)[C@]3(O)C(=O)C(C(N)=O)=C(O)[C@@H](N(C)C)[C@@H]3[C@@H](O)[C@@H]21 [doxycycline] |  |  |  |  |  |  |  |  |  | no effect on bone remodeling

From US20020137209A1, “Methods of dissociating nongenotropic from genotropic activity of steroid receptors” (priority 2000, published 2002)
